Measurements published in article PMC5841300, “Magnolol restores the activity of meropenem against NDM-1-producing Escherichia coli by inhibiting the activity of metallo-beta-lactamase” (Cell Death Discovery, 2018).

What was measured:
[1] = target: T1, New Delhi metallo-β-lactamase-1 (NDM-1) (Escherichia coli, UniProt E5KIY2); assay: purified recombinant enzyme, nitrocefin hydrolysis assay; also fluorescence quenching, KA […] ([…] L/mol); assay type: biochemical
T1 construct: gene blaNDM-1; NDM-1 without the signal peptide, amino-terminal histidine tag

[2] = target: T2, New Delhi metallo-β-lactamase-1 (NDM-1) (Escherichia coli, UniProt E5KIY2, K211A); assay: fluorescence quenching (binding constant KA)
T2 construct: gene blaNDM-1; NDM-1 without the signal peptide, amino-terminal histidine tag

[3] = target: T3, New Delhi metallo-β-lactamase-1 (NDM-1) (Escherichia coli, UniProt E5KIY2, G219A); assay: fluorescence quenching (binding constant KA)
T3 construct: gene blaNDM-1; NDM-1 without the signal peptide, amino-terminal histidine tag

C=CCc1ccc(O)c(-c2cc(CC=C)ccc2O)c1 [magnolol]
IC50 [1]: 24.3 µM | Kd [2]: 20.8 µM | Kd [3]: 18.2 µM
